Here are results for nine molecules from patent publication US8735322B2, “Herbicides” (Syngenta Limited, priority 2008, dated 2014).

Each structure is given as a SMILES string.

Common to all, as to type: in vivo
Experiment [1] has as its system Alopecurus myosuroides (ALOMY). Nature of the experiment: Example A pre-emergence herbicidal activity, glasshouse pot test. Conditions: 480 h, rate 500 g/ha, evaluated 20 days later, 100=total damage to plant, 0=no damage to plant. The procedure:
(§1) Seeds of a variety of test species were sown in standard soil in pots. After cultivation for one day (pre-emergence) or after 10 days cultivation (post-emergence) under controlled conditions in a glasshouse, the plants were sprayed with an aqueous spray solution derived from the formulation of the technical active ingredient in 0.6 ml acetone and 45 ml formulation solution containing 10.6% Emulsogen EL (Registry number 61791-12-6), 42.2% N-methylpyrrolidone, 42.2% dipropylene glycol monomethyl ether (Registry number 34590-94-8) and 0.2% X-77 (Registry number 11097-66-8). The test plants were then grown in a greenhouse under optimum conditions until, 15 days later for post-emergence and 20 days for pre-emergence, the test was evaluated (100=total damage to plant; 0=no damage to plant). Alopecurus myosuroides (ALOMY), Avena fatua (AVEFA), Lolium perenne (LOLPE), Setaria faberi (SETFA), Digitaria sanguinalis (DIGSA), Echinochloa crus-galli (ECHCG) Pre-Emergence Activity

Experiment [2] concerns Avena fatua (AVEFA). Described as above. The following applies: 480 h, rate 500 g/ha, evaluated 20 days later, 100=total damage to plant, 0=no damage to plant. The procedure: as §1
The subject of experiment [3] is Digitaria sanguinalis (DIGSA). Described as above. Conditions: 480 h, rate 500 g/ha, evaluated 20 days later, 100=total damage to plant, 0=no damage to plant. As for the experimental part:
as §1

Experiment [4] deals with Echinochloa crus-galli (ECHCG). The experiment is described as above. The following applies: 480 h, rate 500 g/ha, evaluated 20 days later, 100=total damage to plant, 0=no damage to plant. The procedure:
as §1

Experiment [5] deals with Lolium perenne (LOLPE). The description is as above. Conditions: 480 h, rate 500 g/ha, evaluated 20 days later, 100=total damage to plant, 0=no damage to plant. The procedure: as §1
For experiment [6], the system named is Setaria faberi (SETFA). The experiment is described as above. Conditions: 480 h, rate 500 g/ha, evaluated 20 days later, 100=total damage to plant, 0=no damage to plant. The procedure:
as §1

Experiment [7] has as its system Alopecurus myosuroides (ALOMY). Nature of the experiment: Example A post-emergence herbicidal activity, glasshouse pot test. The following applies: 360 h, evaluated 15 days after spraying, read-out: herbicidal damage ALOMY (100=total damage to plant; 0=no damage to plant); for pest or weed control at 500 g/ha: rate 500 g/ha. The procedure: as §1, with “Post Emergency” for “Pre-Emergence”

For experiment [8], the system named is Avena fatua (AVEFA). The experiment is described as above. The following applies: 360 h, evaluated 15 days after spraying, read-out: herbicidal damage AVEFA (100=total damage to plant; 0=no damage to plant); for pest or weed control at 500 g/ha: rate 500 g/ha. As for the experimental part:
as §1, with “Post Emergency” for “Pre-Emergence”

Experiment [9] deals with Digitaria sanguinalis (DIGSA). The experiment is described as above. Conditions: 360 h, evaluated 15 days after spraying, read-out: herbicidal damage DIGSA (100=total damage to plant; 0=no damage to plant); for pest or weed control at 500 g/ha: rate 500 g/ha. The procedure:
as §1, with “Post Emergency” for “Pre-Emergence”

Experiment [10] concerns Echinochloa crus-galli (ECHCG). The description is as above. Conditions: 360 h, evaluated 15 days after spraying, read-out: herbicidal damage ECHCG (100=total damage to plant; 0=no damage to plant); for pest or weed control at 500 g/ha: rate 500 g/ha. As for the experimental part: as §1, with “Post Emergency” for “Pre-Emergence”
Experiment [11] has as its system Lolium perenne (LOLPE). The description is as above. Conditions: 360 h, evaluated 15 days after spraying, read-out: herbicidal damage LOLPE (100=total damage to plant; 0=no damage to plant); for pest or weed control at 500 g/ha: rate 500 g/ha. The procedure: as §1, with “Post Emergency” for “Pre-Emergence”
Experiment [12] concerns Setaria faberi (SETFA). Described as above. Conditions: 360 h, evaluated 15 days after spraying, read-out: herbicidal damage SETFA (100=total damage to plant; 0=no damage to plant); for pest or weed control at 500 g/ha: rate 500 g/ha. The procedure: as §1, with “Post Emergency” for “Pre-Emergence”

Take `CCc1cc(C)cc(CC)c1C1=C(O)CC(CC2OCCO2)CC1=O` (stereo not drawn) [Compound A-6, 2-(2,6-diethyl-4-methylphenyl)-5-([1,3]dioxolan-2-ylmethyl)cyclohexane-1,3-dione]: the pest or weed control at 500 g/ha worked out at 90% in experiment [1]; 60% in the experiment on Avena fatua (AVEFA) [2]; 100% in experiment [3]; 100% in experiment [4]; 70% in the experiment on Lolium perenne (LOLPE) [5]; 80% in the experiment with Setaria faberi (SETFA) [6]. For the same molecule, the pest or weed control at 500 g/ha was found to be 80% in experiment [7]; 100% in the experiment with Avena fatua (AVEFA) [8]; 90% in experiment [9]; 100% in experiment [10]; 80% in the experiment on Lolium perenne (LOLPE) [11]; 80% in the experiment with Setaria faberi (SETFA) [12].

As to `CCc1cc(C)cc(CC)c1C1=C(O)CC(CC2CCSCC2)CC1=O` (stereo not drawn) [Compound A-14], the pest or weed control at 500 g/ha in experiment [1] amounted to 80%; with Avena fatua (AVEFA) [2], 70%; in [3], 100%; in experiment [4], 80%; in the experiment on Lolium perenne (LOLPE) [5] it was 90%; in the experiment with Setaria faberi (SETFA) [6], 100%. In addition, the pest or weed control at 500 g/ha in experiment [7] is 100%; in the experiment with Avena fatua (AVEFA) [8], 100%; in experiment [9], 70%; in experiment [10], 100%; in the experiment with Lolium perenne (LOLPE) [11], 90%; in the experiment with Setaria faberi (SETFA) [12] it was 100%.

`Cc1ccc(-c2ccc(Cl)cc2)cc1C1=C(O)CC(C(C)C2CCOCC2)CC1=O` (stereo not drawn) [Compound A-15]: the pest or weed control at 500 g/ha was found to be 10% in experiment [1]; 40% in the experiment on Avena fatua (AVEFA) [2]; 20% in experiment [3]; 10% in experiment [4]; 0% with Lolium perenne (LOLPE) [5]; 20% in the experiment on Setaria faberi (SETFA) [6]. For the same molecule, the pest or weed control at 500 g/ha in experiment [7] turned out to be 60%; in the experiment with Avena fatua (AVEFA) [8], 30%; in experiment [9], 70%; in experiment [10], 50%; with Lolium perenne (LOLPE) [11] it was 30%; with Setaria faberi (SETFA) [12], 30%.

In the case of `CCc1cc(CC)c(C2=C(O)CC(CC3CCOCC3)CC2=O)c(CC)c1` (stereo not drawn) [Compound A-19], the pest or weed control at 500 g/ha in experiment [1] was found to be 100%; in the experiment on Avena fatua (AVEFA) [2] it was 60%; in experiment [3], 100%; in experiment [4], 100%; with Lolium perenne (LOLPE) [5] it was 100%; in the experiment on Setaria faberi (SETFA) [6], 100%. Also, the pest or weed control at 125 g/ha is 70% in experiment [7] (rate 125 g/ha); 20% with Avena fatua (AVEFA) [8] (rate 125 g/ha); 60% in experiment [9] (rate 125 g/ha); 70% in experiment [10] (rate 125 g/ha); 70% in the experiment with Lolium perenne (LOLPE) [11] (rate 125 g/ha); 60% in the experiment with Setaria faberi (SETFA) [12] (rate 125 g/ha).

With `CCc1cc(C)cc(CC)c1C1=C(O)CC(CC2CCOCC2)CC1=O` (stereo not drawn) [Compound A-5, 2-(2,6-diethyl-4-methylphenyl)-5-(tetrahydropyran-4-ylmethyl)cyclohexane-1,3-dione], the pest or weed control at 500 g/ha (in experiment [1]; with Avena fatua (AVEFA) [2]; in [3]; in experiment [4]; with Lolium perenne (LOLPE) [5]; with Setaria faberi (SETFA) [6]) was 100% throughout. The pest or weed control at 500 g/ha in experiment [7] stood at 90%; with Avena fatua (AVEFA) [8], 90%; in experiment [9], 90%; in experiment [10] it was 100%; with Lolium perenne (LOLPE) [11], 90%; in the experiment with Setaria faberi (SETFA) [12], 100%.

With `Cc1ccc(-c2ccc(Cl)cc2)cc1C1=C(O)CC(CC2CCOC2)CC1=O` (stereo not drawn) [Compound A-2], the pest or weed control at 500 g/ha stood at 20% in experiment [1]; 40% in the experiment with Avena fatua (AVEFA) [2]; 50% in experiment [3]; 100% in experiment [4]; 10% in the experiment on Lolium perenne (LOLPE) [5]; 60% in the experiment on Setaria faberi (SETFA) [6]. Also, the pest or weed control at 500 g/ha was 70% in [7]; 40% in the experiment with Avena fatua (AVEFA) [8]; 90% in experiment [9]; 100% in [10]; 50% in the experiment with Lolium perenne (LOLPE) [11]; 90% in the experiment on Setaria faberi (SETFA) [12].

For the molecule `Cc1cc(C)c(C2=C(O)CC(CC3CCOCC3)CC2=O)c(C)c1` (stereo not drawn) [Compound A-9], the pest or weed control at 500 g/ha is 100% in experiment [1]; 60% in the experiment on Avena fatua (AVEFA) [2]; 100% in experiment [3]; 70% in [4]; 100% in the experiment with Lolium perenne (LOLPE) [5]; 90% in the experiment with Setaria faberi (SETFA) [6]. Moreover, the pest or weed control at 500 g/ha in [7] turned out to be 80%; with Avena fatua (AVEFA) [8], 70%; in experiment [9], 70%; in [10] it was 90%; with Lolium perenne (LOLPE) [11], 80%; in the experiment with Setaria faberi (SETFA) [12] it was 80%.

Take `CCc1cc(C)cc(CC)c1C1=C(O)CC(CC2CCOC2)CC1=O` (stereo not drawn) [Compound A-3]: the pest or weed control at 500 g/ha was 80% in experiment [1]; 90% in the experiment with Avena fatua (AVEFA) [2]; 100% in experiment [3]; 100% in [4]; 100% in the experiment with Lolium perenne (LOLPE) [5]; 100% in the experiment on Setaria faberi (SETFA) [6]. The pest or weed control at 500 g/ha worked out at 80% in experiment [7]; 80% in the experiment on Avena fatua (AVEFA) [8]; 100% in experiment [9]; 100% in [10]; 80% in the experiment with Lolium perenne (LOLPE) [11]; 80% with Setaria faberi (SETFA) [12].

For the molecule `CCc1ccc(-c2ccc(Cl)cc2)cc1C1=C(O)CC(C(C)C2CCOCC2)CC1=O` (stereo not drawn) [Compound A-13], the pest or weed control at 500 g/ha in experiment [1] was 30%; in the experiment with Avena fatua (AVEFA) [2], 20%; in experiment [3] it was 30%; in experiment [4], 30%; in the experiment with Lolium perenne (LOLPE) [5] it was 10%; in the experiment on Setaria faberi (SETFA) [6], 30%. The pest or weed control at 500 g/ha was found to be 80% in experiment [7]; 30% in the experiment on Avena fatua (AVEFA) [8]; 90% in experiment [9]; 100% in [10]; 70% in the experiment with Lolium perenne (LOLPE) [11]; 50% in the experiment with Setaria faberi (SETFA) [12].
